We go through three compounds from the kinase profiling compilation of Christmann-Franck et al. (2016).

The first assay concerns the target RET (human) (UniProt P07949). In words: radiometric filter-binding kinase assay, Kinase HotSpot. To be noted: compound 0.5 µM; ATP 10 µM.
Usually residual activity stands for the signal under treatment as a percentage of the control signal. As to `Oc1ccc(Nc2nc(-c3ccc(Cl)cc3)cs2)cc1`, the residual activity is 99%.

For the compound `O=C1Nc2ccccc2/C1=C1/Nc2ccccc2/C1=N\OCCC(O)CO` (stereo not drawn), the residual activity worked out at 1.22%.

Take `Nc1nnc2[nH]c3ccccc3nc1-2`: the residual activity came out at 97.1%.

The next assay deals with BRSK1 (human) (UniProt Q8TDC3). Described as above. To be noted: compound 0.5 µM; ATP 10 µM.
BRSK1 (human), sequence (Q8TDC3 whole entry, looked up): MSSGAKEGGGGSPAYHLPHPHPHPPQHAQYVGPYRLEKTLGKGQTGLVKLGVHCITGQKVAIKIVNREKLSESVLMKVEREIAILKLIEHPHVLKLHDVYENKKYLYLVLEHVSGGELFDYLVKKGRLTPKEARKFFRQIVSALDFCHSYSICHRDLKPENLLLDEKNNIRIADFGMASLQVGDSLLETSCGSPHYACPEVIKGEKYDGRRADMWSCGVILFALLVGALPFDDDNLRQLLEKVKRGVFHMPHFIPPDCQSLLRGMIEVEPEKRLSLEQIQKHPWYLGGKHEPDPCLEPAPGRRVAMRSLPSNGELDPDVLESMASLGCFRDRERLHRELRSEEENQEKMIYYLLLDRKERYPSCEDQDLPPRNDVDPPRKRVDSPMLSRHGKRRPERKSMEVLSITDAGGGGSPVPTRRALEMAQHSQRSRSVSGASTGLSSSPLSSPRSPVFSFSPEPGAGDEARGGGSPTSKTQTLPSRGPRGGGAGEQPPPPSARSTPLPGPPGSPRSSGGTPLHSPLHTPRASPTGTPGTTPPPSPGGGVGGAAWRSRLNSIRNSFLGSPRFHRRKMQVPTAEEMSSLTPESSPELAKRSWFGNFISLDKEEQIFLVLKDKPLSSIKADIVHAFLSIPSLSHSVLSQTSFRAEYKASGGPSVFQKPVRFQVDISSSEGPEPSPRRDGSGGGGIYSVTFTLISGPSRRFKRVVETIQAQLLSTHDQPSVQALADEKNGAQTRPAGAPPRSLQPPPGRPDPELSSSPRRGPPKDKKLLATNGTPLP
As to `Oc1ccc(Nc2nc(-c3ccc(Cl)cc3)cs2)cc1`, the residual activity came to 102%.

Regarding `O=C1Nc2ccccc2/C1=C1/Nc2ccccc2/C1=N\OCCC(O)CO` (stereo not drawn), the residual activity was 39.5%.

For the compound `Nc1nnc2[nH]c3ccccc3nc1-2`, the residual activity was found to be 91.5%.

The target of the next assay is NEK2 (human) (UniProt P51955). Described as above. As to conditions: compound 0.5 µM; ATP 10 µM.
NEK2 (human), sequence (P51955 whole entry, looked up): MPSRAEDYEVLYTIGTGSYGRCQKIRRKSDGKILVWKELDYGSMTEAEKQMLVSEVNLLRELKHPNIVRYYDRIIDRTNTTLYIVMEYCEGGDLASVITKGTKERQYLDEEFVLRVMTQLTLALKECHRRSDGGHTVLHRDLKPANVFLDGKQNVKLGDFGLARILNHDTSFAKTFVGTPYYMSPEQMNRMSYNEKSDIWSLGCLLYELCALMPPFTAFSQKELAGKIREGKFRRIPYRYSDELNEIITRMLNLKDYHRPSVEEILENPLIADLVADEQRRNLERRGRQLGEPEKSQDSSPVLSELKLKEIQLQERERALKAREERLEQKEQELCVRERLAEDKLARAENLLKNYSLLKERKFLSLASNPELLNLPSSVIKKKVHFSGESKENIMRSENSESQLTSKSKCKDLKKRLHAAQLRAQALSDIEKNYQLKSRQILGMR
For `Oc1ccc(Nc2nc(-c3ccc(Cl)cc3)cs2)cc1`, the residual activity amounted to 110%.

Consider `O=C1Nc2ccccc2/C1=C1/Nc2ccccc2/C1=N\OCCC(O)CO` (stereo not drawn), for which the residual activity came out at 114%.

Take `Nc1nnc2[nH]c3ccccc3nc1-2`: the residual activity is 99.6%.

In the next assay the target is MAP2K1 (human) (UniProt Q02750). The assay is described as above. As to conditions: compound 0.5 µM; ATP 10 µM.
Regarding `Oc1ccc(Nc2nc(-c3ccc(Cl)cc3)cs2)cc1`, the residual activity was 90.7%.

In the case of `O=C1Nc2ccccc2/C1=C1/Nc2ccccc2/C1=N\OCCC(O)CO` (stereo not drawn), the residual activity was found to be 99.7%.

For the compound `Nc1nnc2[nH]c3ccccc3nc1-2`, the residual activity was found to be 98.8%.

The target of another assay is PAK7 (human) (UniProt Q9P286). The description is as above. To be noted: compound 0.5 µM; ATP 10 µM.
PAK7 (human), sequence (Q9P286 whole entry, looked up): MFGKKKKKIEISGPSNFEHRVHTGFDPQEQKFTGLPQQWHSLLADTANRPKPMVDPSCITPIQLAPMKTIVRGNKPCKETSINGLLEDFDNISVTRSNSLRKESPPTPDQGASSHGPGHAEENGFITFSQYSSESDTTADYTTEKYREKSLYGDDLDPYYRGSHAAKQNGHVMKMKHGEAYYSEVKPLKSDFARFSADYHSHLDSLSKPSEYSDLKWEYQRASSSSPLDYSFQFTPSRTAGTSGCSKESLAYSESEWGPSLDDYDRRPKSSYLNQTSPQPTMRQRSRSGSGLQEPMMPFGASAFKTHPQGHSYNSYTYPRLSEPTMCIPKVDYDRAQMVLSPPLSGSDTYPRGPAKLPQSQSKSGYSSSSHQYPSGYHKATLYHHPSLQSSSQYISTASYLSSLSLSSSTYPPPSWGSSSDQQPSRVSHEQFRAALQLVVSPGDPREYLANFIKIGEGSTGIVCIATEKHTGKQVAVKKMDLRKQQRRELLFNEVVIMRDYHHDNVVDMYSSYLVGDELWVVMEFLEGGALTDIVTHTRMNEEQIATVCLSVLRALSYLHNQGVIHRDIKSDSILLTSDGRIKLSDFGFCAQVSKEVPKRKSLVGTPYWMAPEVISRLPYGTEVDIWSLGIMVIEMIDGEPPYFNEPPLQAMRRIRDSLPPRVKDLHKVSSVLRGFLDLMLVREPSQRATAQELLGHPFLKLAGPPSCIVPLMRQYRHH
`Oc1ccc(Nc2nc(-c3ccc(Cl)cc3)cs2)cc1`: the residual activity was 105%.

Turning to `O=C1Nc2ccccc2/C1=C1/Nc2ccccc2/C1=N\OCCC(O)CO` (stereo not drawn), the residual activity is 81%.

Take `Nc1nnc2[nH]c3ccccc3nc1-2`: the residual activity came to 98.4%.

In the next assay the target is MAPKAPK2 (human) (UniProt P49137). The description is as above. As to conditions: compound 0.5 µM; ATP 10 µM.
With `Oc1ccc(Nc2nc(-c3ccc(Cl)cc3)cs2)cc1`, the residual activity came out at 100%.

`O=C1Nc2ccccc2/C1=C1/Nc2ccccc2/C1=N\OCCC(O)CO` (stereo not drawn): the residual activity turned out to be 98.4%.

Regarding `Nc1nnc2[nH]c3ccccc3nc1-2`, the residual activity was found to be 105%.

For another assay, the target named is ADRBK2 (human) (UniProt P35626). The description is as above. As to conditions: compound 0.5 µM; ATP 10 µM.
ADRBK2 (human), sequence (P35626 whole entry, looked up): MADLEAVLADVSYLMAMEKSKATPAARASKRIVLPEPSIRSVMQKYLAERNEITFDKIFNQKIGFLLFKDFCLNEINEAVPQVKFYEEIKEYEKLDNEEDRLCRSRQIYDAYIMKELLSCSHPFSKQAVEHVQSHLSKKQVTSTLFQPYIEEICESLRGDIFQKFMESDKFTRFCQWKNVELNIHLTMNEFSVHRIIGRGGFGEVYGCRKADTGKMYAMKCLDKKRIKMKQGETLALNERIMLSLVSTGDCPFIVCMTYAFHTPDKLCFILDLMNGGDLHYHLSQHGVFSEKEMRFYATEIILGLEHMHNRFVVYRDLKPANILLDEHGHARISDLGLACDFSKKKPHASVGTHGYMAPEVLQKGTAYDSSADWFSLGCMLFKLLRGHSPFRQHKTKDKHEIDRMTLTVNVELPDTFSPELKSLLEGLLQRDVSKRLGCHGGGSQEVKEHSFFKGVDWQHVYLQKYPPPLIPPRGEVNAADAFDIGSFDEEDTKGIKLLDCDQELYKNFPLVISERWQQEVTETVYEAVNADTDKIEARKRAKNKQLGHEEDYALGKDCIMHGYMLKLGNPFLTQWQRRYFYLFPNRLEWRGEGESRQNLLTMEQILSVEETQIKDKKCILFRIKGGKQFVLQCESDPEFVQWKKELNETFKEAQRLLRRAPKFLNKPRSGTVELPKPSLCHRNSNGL
In the case of `Oc1ccc(Nc2nc(-c3ccc(Cl)cc3)cs2)cc1`, the residual activity came out at 97.6%.

Turning to `O=C1Nc2ccccc2/C1=C1/Nc2ccccc2/C1=N\OCCC(O)CO` (stereo not drawn), the residual activity worked out at 100%.

As to `Nc1nnc2[nH]c3ccccc3nc1-2`, the residual activity was determined as 92.4%.

The target in the next assay is ULK2 (human) (UniProt Q8IYT8). The description is as above. As to conditions: compound 0.5 µM; ATP 10 µM.
ULK2 (human), sequence (Q8IYT8 whole entry, looked up): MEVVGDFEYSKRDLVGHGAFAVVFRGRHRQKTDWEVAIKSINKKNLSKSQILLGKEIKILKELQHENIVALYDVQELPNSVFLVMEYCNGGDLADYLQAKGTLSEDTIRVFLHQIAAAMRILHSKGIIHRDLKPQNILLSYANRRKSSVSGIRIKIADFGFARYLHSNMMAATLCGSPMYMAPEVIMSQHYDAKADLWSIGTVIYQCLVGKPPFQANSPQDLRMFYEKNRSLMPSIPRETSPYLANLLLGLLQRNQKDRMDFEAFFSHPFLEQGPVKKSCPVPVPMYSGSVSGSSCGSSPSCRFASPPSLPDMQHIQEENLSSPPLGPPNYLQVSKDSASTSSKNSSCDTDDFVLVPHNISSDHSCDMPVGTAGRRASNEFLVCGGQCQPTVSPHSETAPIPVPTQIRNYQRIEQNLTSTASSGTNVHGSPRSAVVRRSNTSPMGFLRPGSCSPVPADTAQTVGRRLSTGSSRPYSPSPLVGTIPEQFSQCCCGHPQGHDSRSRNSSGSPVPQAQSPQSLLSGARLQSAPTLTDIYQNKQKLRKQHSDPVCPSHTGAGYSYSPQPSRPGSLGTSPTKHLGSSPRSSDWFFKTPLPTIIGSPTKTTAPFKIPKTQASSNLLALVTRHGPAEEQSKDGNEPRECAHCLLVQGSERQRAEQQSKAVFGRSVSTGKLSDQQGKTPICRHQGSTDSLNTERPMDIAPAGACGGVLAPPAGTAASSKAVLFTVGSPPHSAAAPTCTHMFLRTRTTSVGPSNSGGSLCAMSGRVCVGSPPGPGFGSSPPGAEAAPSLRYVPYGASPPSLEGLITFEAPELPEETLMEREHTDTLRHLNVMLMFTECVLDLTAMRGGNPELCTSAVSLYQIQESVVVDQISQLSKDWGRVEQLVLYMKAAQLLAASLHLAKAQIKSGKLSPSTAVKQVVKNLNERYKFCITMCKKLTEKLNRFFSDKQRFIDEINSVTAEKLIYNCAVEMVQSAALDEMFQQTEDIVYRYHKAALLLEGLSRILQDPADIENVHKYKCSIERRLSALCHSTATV
For the compound `Oc1ccc(Nc2nc(-c3ccc(Cl)cc3)cs2)cc1`, the residual activity was found to be 101%.

For `O=C1Nc2ccccc2/C1=C1/Nc2ccccc2/C1=N\OCCC(O)CO` (stereo not drawn), the residual activity came out at 102%.

For `Nc1nnc2[nH]c3ccccc3nc1-2`, the residual activity is 95.9%.

In the next assay the target is STK3 (human) (UniProt Q13188). Described as above. To be noted: compound 0.5 µM; ATP 10 µM.
In the case of `Oc1ccc(Nc2nc(-c3ccc(Cl)cc3)cs2)cc1`, the residual activity was 114%.

For `O=C1Nc2ccccc2/C1=C1/Nc2ccccc2/C1=N\OCCC(O)CO` (stereo not drawn), the residual activity was determined as 4.81%.

On to `Nc1nnc2[nH]c3ccccc3nc1-2`, for which the residual activity was determined as 88.9%.

The target of the next assay is MET (human) (UniProt P08581). The description is as above. As to conditions: compound 0.5 µM; ATP 10 µM.
MET (human), sequence (P08581 whole entry, looked up): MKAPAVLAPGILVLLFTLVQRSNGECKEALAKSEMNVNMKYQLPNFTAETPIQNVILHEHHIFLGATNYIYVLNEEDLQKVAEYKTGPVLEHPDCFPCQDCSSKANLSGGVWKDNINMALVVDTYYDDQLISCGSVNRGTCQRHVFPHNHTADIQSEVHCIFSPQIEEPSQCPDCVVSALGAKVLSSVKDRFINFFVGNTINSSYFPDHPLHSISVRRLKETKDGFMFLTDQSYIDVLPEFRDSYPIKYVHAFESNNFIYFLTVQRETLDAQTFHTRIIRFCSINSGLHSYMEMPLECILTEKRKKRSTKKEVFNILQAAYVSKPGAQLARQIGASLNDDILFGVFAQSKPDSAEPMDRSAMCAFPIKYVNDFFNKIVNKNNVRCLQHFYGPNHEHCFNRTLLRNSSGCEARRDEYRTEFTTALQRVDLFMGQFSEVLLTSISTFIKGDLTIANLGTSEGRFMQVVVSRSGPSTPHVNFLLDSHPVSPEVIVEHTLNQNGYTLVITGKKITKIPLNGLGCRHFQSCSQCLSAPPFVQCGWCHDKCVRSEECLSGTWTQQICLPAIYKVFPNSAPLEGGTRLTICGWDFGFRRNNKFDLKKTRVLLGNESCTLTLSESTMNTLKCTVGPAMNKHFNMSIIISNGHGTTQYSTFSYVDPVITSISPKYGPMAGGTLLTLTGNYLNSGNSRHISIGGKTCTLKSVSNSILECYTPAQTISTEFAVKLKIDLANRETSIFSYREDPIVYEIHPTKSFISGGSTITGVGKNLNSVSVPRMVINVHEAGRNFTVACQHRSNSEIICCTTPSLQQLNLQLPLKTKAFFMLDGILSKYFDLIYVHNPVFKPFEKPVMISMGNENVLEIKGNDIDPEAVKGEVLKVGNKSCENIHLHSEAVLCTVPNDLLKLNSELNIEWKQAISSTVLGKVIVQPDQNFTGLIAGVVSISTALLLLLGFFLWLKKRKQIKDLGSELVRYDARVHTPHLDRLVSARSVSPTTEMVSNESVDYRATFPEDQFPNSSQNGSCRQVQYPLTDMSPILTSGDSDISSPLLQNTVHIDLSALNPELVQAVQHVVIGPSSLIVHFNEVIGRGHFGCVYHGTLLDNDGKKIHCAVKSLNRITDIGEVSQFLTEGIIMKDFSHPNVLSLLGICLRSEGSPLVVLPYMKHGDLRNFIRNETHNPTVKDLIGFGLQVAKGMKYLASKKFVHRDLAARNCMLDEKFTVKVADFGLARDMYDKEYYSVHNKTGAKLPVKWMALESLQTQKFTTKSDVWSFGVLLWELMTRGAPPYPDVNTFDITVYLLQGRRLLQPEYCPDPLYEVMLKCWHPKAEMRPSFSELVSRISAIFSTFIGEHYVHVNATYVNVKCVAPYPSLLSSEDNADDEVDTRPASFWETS
Regarding `Oc1ccc(Nc2nc(-c3ccc(Cl)cc3)cs2)cc1`, the residual activity was determined as 99.4%.

On to `O=C1Nc2ccccc2/C1=C1/Nc2ccccc2/C1=N\OCCC(O)CO` (stereo not drawn), for which the residual activity was found to be 123%.

Turning to `Nc1nnc2[nH]c3ccccc3nc1-2`, the residual activity was 90.1%.

A further assay has as its target TXK (human) (UniProt P42681). The assay is described as above. As to conditions: compound 0.5 µM; ATP 10 µM.
For the compound `Oc1ccc(Nc2nc(-c3ccc(Cl)cc3)cs2)cc1`, the residual activity came out at 100%.

With `O=C1Nc2ccccc2/C1=C1/Nc2ccccc2/C1=N\OCCC(O)CO` (stereo not drawn), the residual activity was determined as 25.6%.

Consider `Nc1nnc2[nH]c3ccccc3nc1-2`, for which the residual activity came to 97.6%.

A further assay has as its target PRKX (human) (UniProt P51817). The description is as above. To be noted: compound 0.5 µM; ATP 10 µM.
As to `Oc1ccc(Nc2nc(-c3ccc(Cl)cc3)cs2)cc1`, the residual activity came to 99.6%.

As to `O=C1Nc2ccccc2/C1=C1/Nc2ccccc2/C1=N\OCCC(O)CO` (stereo not drawn), the residual activity is 84.2%.

For the compound `Nc1nnc2[nH]c3ccccc3nc1-2`, the residual activity came to 102%.

The next assay has as its target LIMK1 (human) (UniProt P53667). The assay is described as above. To be noted: compound 0.5 µM; ATP 10 µM.
Take `Oc1ccc(Nc2nc(-c3ccc(Cl)cc3)cs2)cc1`: the residual activity turned out to be 90.5%.

For the compound `O=C1Nc2ccccc2/C1=C1/Nc2ccccc2/C1=N\OCCC(O)CO` (stereo not drawn), the residual activity is 39.5%.

As for `Nc1nnc2[nH]c3ccccc3nc1-2`, the residual activity was 105%.

Another assay concerns the target ROCK1 (human) (UniProt Q13464). The assay is described as above. As to conditions: compound 0.5 µM; ATP 10 µM.
As to `Oc1ccc(Nc2nc(-c3ccc(Cl)cc3)cs2)cc1`, the residual activity stood at 103%.

As to `O=C1Nc2ccccc2/C1=C1/Nc2ccccc2/C1=N\OCCC(O)CO` (stereo not drawn), the residual activity came out at 101%.

Turning to `Nc1nnc2[nH]c3ccccc3nc1-2`, the residual activity was determined as 99%.

A further assay has as its target PTK6 (human) (UniProt Q13882). The description is as above. To be noted: compound 0.5 µM; ATP 10 µM.
`Oc1ccc(Nc2nc(-c3ccc(Cl)cc3)cs2)cc1`: the residual activity came out at 87.4%.

Consider `O=C1Nc2ccccc2/C1=C1/Nc2ccccc2/C1=N\OCCC(O)CO` (stereo not drawn), for which the residual activity is 73.3%.

With `Nc1nnc2[nH]c3ccccc3nc1-2`, the residual activity came out at 84.1%.

Another assay addresses EPHB2 (human) (UniProt P29323). The description is as above. To be noted: compound 0.5 µM; ATP 10 µM.
Turning to `Oc1ccc(Nc2nc(-c3ccc(Cl)cc3)cs2)cc1`, the residual activity was found to be 101%.

Regarding `O=C1Nc2ccccc2/C1=C1/Nc2ccccc2/C1=N\OCCC(O)CO` (stereo not drawn), the residual activity turned out to be 75%.

Turning to `Nc1nnc2[nH]c3ccccc3nc1-2`, the residual activity was found to be 103%.

The next assay concerns the target CHEK2 (human) (UniProt O96017). Described as above. As to conditions: compound 0.5 µM; ATP 10 µM.
For the compound `Oc1ccc(Nc2nc(-c3ccc(Cl)cc3)cs2)cc1`, the residual activity was 97.9%.

Take `O=C1Nc2ccccc2/C1=C1/Nc2ccccc2/C1=N\OCCC(O)CO` (stereo not drawn): the residual activity was found to be 27%.

With `Nc1nnc2[nH]c3ccccc3nc1-2`, the residual activity turned out to be 94.4%.

A further assay has as its target CSF1R (human) (UniProt P07333). Described as above. To be noted: compound 0.5 µM; ATP 10 µM.
Consider `Oc1ccc(Nc2nc(-c3ccc(Cl)cc3)cs2)cc1`, for which the residual activity amounted to 104%.

Consider `O=C1Nc2ccccc2/C1=C1/Nc2ccccc2/C1=N\OCCC(O)CO` (stereo not drawn), for which the residual activity amounted to 21.1%.

For the compound `Nc1nnc2[nH]c3ccccc3nc1-2`, the residual activity worked out at 95.3%.

The target of another assay is FGFR4 (human) (UniProt P22455). The assay is described as above. As to conditions: compound 0.5 µM; ATP 10 µM.
On to `Oc1ccc(Nc2nc(-c3ccc(Cl)cc3)cs2)cc1`, for which the residual activity is 71.6%.

`O=C1Nc2ccccc2/C1=C1/Nc2ccccc2/C1=N\OCCC(O)CO` (stereo not drawn): the residual activity was found to be 65.7%.

`Nc1nnc2[nH]c3ccccc3nc1-2`: the residual activity came to 94.9%.

The target in the next assay is NEK11 (human) (UniProt Q8NG66). The description is as above. To be noted: compound 0.5 µM; ATP 10 µM.
Turning to `Oc1ccc(Nc2nc(-c3ccc(Cl)cc3)cs2)cc1`, the residual activity is 77.1%.

Take `O=C1Nc2ccccc2/C1=C1/Nc2ccccc2/C1=N\OCCC(O)CO` (stereo not drawn): the residual activity stood at 92.3%.

For `Nc1nnc2[nH]c3ccccc3nc1-2`, the residual activity worked out at 110%.

The next assay addresses PIM1 (human) (UniProt P11309). The assay is described as above. As to conditions: compound 0.5 µM; ATP 10 µM.
`Oc1ccc(Nc2nc(-c3ccc(Cl)cc3)cs2)cc1`: the residual activity was found to be 103%.

Regarding `O=C1Nc2ccccc2/C1=C1/Nc2ccccc2/C1=N\OCCC(O)CO` (stereo not drawn), the residual activity was found to be 59.7%.

As for `Nc1nnc2[nH]c3ccccc3nc1-2`, the residual activity is 94%.
